Consider 1 compound from US20020177575A1, “Identification of farnesyl-protein transferase as a target for systemic lupus erythematosus therapies” (priority 2001, published 2002).

The subject of one assay is B6.Sle1(a+b) mice. Kind of assay: Suppression of anti-nuclear autoantibody (ANA) production in B6.Sle1(a+b) mice; anti-histone-DNA ANA in sera by ELISA. It is filed as in vivo, mouse. Particulars: daily intraperitoneal injection, 75 mg/kg body weight for 4 weeks, sera before, during and after treatment. As for the experimental part:
T0 represents the OD value for measuring the titer of anti-Histone/DNA antibodies before treatment. T represents the OD value for measuring the titer of anti-Histone/DNA antibodies at a time point during or after treatment. Each point represents Mean±SE. Mice in control group were given vehicle (Tricaprylin) only.
To study whether POH can inhibit anti-nuclear autoantibody (ANA) production, the inventors treated B6.Sle1(a+b) mice by daily intraperitoneal injection of POH at a dose of 75 mg/kg body weight for 4 weeks. Sera were collected before, during, and after treatment. Levels of anti-histone-DNA ANA were determined by ELISA.

Assay [1] deals with ras protein farnesylation. To be noted: has been shown (prior knowledge); cited from earlier work.

Take `C=C(C)[C@@H]1CC=C(CO)CC1` [POH, Perillyl alcohol]: the “Sle1-mediated anti-histone-DNA ANA production” value with B6.Sle1(a+b) mice (FIG. 3) is “can be suppressed”; in the assay on B6.Sle1(a+b) mice (FIG. 3, listed as perillyl alcohol (POH)), “Inhibitory effect”. Moreover, the ras protein farnesylation result in assay [1] is “has been shown to inhibit ras protein farnesylation”.
